# Reference: BindingDB's records for doi:10.1002/(SICI)1098-2396(200002)35:2<79::AID-SYN1>3.0.CO;2-X (Institut De Recherches Servier, 2000)
# Molecular target: T1, 5-hydroxytryptamine receptor 2C (Homo sapiens, UniProt P28335)
# T1 sequence (P28335 whole entry): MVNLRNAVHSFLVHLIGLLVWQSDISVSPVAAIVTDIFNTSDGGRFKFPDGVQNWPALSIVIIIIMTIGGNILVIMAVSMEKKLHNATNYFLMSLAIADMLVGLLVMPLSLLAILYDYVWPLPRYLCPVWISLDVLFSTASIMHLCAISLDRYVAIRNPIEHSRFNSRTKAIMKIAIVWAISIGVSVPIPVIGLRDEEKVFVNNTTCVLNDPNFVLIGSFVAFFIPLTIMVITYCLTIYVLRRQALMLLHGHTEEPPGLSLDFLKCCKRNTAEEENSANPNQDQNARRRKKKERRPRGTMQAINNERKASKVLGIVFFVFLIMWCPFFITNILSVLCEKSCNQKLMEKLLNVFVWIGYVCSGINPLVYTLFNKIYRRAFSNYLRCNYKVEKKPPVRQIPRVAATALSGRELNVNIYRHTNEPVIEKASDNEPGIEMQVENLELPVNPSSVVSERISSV
compound,measurement,value
Fc1cccc2c1OC1CNCC1O2 (stereo unspecified) [CAS_105182-45-4],Ki,1000 nM
